# Assay results taken from US10870647B2, “Imidazopyridine derivative, method for preparing same, and pharmaceutical composition containing same as active ingredient for preventing or treating cancer” (DAEGU-GYEONGBUK MEDICAL INNOVATION FOUNDATION, priority 2016, dated 2020).
# pIC50: −log10 of the molar value.
# Tests used:
# Format in all cases: cell-based
# [1] = test system: MDA-MB-231; test: Real time cell proliferation, IncuCyte ZOOM, 72 hours; settings: Homo sapiens, MDA-MB-231, 72 h
# [2] = test system: Huh7; test: Cancer cell proliferation inhibition, MTS assay, 72 hours; settings: Homo sapiens, Huh-7
# Description: (§1) MTS assay was performed to evaluate the cancer cell proliferation inhibition (cancer cell apoptosis) effect of the compounds of examples of the present invention. Particularly, the assay was performed using the cancer cell lines GIST-T1, GIST-T1/816, GIST-430, GIST-430/654, GIST-R1, GIST-R3, M-NFS-60, RetParental (Ba/F3), Retwt (Ba/F3), RetV804M (Ba/F3), RET (LC2/ad-CDC6), FYN (MCP-1), FYN (FN), MDA-MB-231, Huh7, K562, T315I(Ba/F3), SK-MEL-28 and A375. Cell culture was performed using a medium suitable for each cell line.
# (§2) Other cell lines were seeded in a 96-well plate containing the corresponding medium appropriate for each cell line at the density of 3,000 cells/well, followed by culture in a 5% CO2 and 37° C. incubator for 24 hours. The compounds of examples of the present invention were added to each well at the concentration of from the highest volume of 50 μM to every step of serial dilution. The solvent control, dimethylsulfoxide (DMSO), was treated at the same concentration of 0.05% (v/v) as the volume used for the treatment of the compounds above. Each cell line was cultured for 72 hours. To investigate the cell viability, the MTS and PMS (phenazine methosulfate) mixture provided in CellTiter 96® AQuous Non-Radioactive Cell Proliferation Assay Kit (Promega) was added to each cell culture medium, followed by additional culture at 37° C. for 2 hours. Then, OD450 was measured. Based on OD of the solvent control cells not treated with any compounds of the present invention, the cell proliferation inhibition rate was calculated according to the treatment concentration of each compound. At this time, the concentration of each compound that was able to inhibit cancer cell proliferation up to 50% was determined as IC50 (uM). IC50 of each compound was determined with three data sets and calculated by using Prism softwater (version 6.01, GraphPad).
# [3] = test system: SK-MEL-28; test: as above; settings: Homo sapiens
# Description: as §1, §2
# [4] = test system: K562; test: Cancer cell proliferation inhibition, CCK-8, 72 hours; settings: Homo sapiens, K562, 72 h
# Description: as §1
# (§3) In the meantime, MDA-MB-231 and A375 cells were seeded in a 96well plate at the density of 2×10^3/100 μl/well, which stood for a day for attachment. The culture fluid was eliminated. After removing the culture medium, the medium was replaced with the culture medium containing the compounds of the present invention at 3-times serially diluted 9 concentrations (0.0015-10 μM) and the DMSO control, followed by incubation in a 37° C. CO2 incubator for 72 hours. On the other hand, K-562 and Ba/F3-T315I cells were seeded in a 96-well plate at the density of 1×10^4/90 μl/well. The plate containing K-562 cells was added with the culture medium containing the compounds of the present invention at 3-times serially diluted 9 concentrations (0.015-100 μM) and the DMSO control (10 μl/well). The plate containing Ba/F3-T315I cells was added with the culture medium containing the compounds of the present invention at 5-times serially diluted 9 concentrations (0.000256-100 μM) and the DMSO control (10 μl/well). The final concentration was made 0-10 μM and then the cells were cultured in a 37° C. CO2 incubator for 72 hours.
# (§4) A375, K-562 and Ba/F3-T315I cells were added with CCK-8 solution at the concentration of 10 μl/well, followed by orbital shaking for 30 seconds. Then, the cells were cultured in a 37° C. CO2 incubator for 2 hours. OD450 was measured by using a microplate reader. The OD value of the well treated with the culture medium and CCK-8 solution alone was subtracted from the OD value measured above, followed by calculation of IC50 using GraphPad Prism 6 software.
# [5] = biological target: T1, T315I (Ba/F3) (Homo sapiens, UniProt P00519, T315I, cells depend on it); test: as above; settings: read-out: T315I (Ba/F3) IC50
# T1 construct: fused on or other part: P11274 (Breakpoint cluster region protein)
# Description: as §1, §3, §4
# [6] = test system: A375; test: as above; settings: Homo sapiens, A-375, 72 h
# Description: as §1, §3, §4
# [7] = test system: M-NFS-60; test: as above
# Description: as §1
# M-NFS-60 cell line was cultured in the complete growth medium prepared by adding 10% FBS, 0.05 mM 2-mercaptoethanol and 62 ng of human M-CSF to RPMI. When the confluence reached 80% in T-75 flask, the cells were collected in a 50 ml tube for seeding, followed by centrifugation at 800 rpm for 5 minutes. The cells were suspended in 10 mL of growth medium. The cell number was counted by using a hematocytometer to determine the necessary cell number and the medium volume for seeding. The cells were seeded in a 96-well plate at the density of 20000 cells/well (200 μL/well), followed by stabilization in a 37° C. CO2 incubator, while the compounds of the present invention were prepared. The compounds of the present invention were serially diluted with DMSO at the ratio of 1/3 with setting the maximum concentration at 1968 nM, which were loaded in a new V-bottom 96-well plate, resulting in the preparation of total 11 concentrations including the DMSO control. The cells that had been placed in the incubator were taken out, to which the compounds of the present invention were added (2 μl/well). The plate treated with the compounds was cultured in a 37° C. CO2 incubator for 72 hours. 72 hours later, the plate treated with the compounds was taken out, to which CCK-8 solution was treated (20 μl/well). After well mixing, the plate was further cultured in a 37° C. CO2 incubator for 2 hours. Then, OD450 was measured by using a microplate reader. To obtain accurate results, the wells displaying bubbles were eliminated from the measurement.
# [8] = test system: RET (LC2/ad-CDC6); test: Cancer cell proliferation inhibition, MTS assay, 72 hours; settings: 72 h
# Description: as §1, §2
compound,measurement,setting,value
"Cc1ccc(C(=O)Nc2ccccc2F)cc1C#Cc1cnc2c(Nc3cnn(C)c3)cccn12 [Example 2, N-(2-fluorophenyl)-4-methyl-3-((8-((1-methyl-1H-pyrazol-4-yl)amino)imidazo[1,2-a]pyridin-3-yl)ethynyl)benzamide]",pIC50,[1],< 5.00
same,pIC50,[2],< 4.30
same,pIC50,[3],< 5.00
same,pIC50,[4],7.92
same,GI50,[5],> 10000 nM
same,pIC50,[6],< 5.00
"Cc1ccc(C(=O)Nc2ccc(CN3CCN(C)CC3)c(C(F)(F)F)c2)cc1C#Cc1cnc2c(Nc3ccc(C(F)(F)F)cc3)cccn12 [Example 19, 4-methyl-N-(4-((4-methylpiperazin-1-yl)methyl)-3-(trifluoromethyl)phenyl)-3-((8-((4-(trifluoromethyl)phenyl)amino)imidazo[1,2-a]pyridin-3-yl)ethynyl)benzamide]",pIC50,[7],6.62
same,pIC50,[1],5.50
same,pIC50,[8],> 5.00
same,pIC50,[2],4.82
same,pIC50,[3],5.43
same,pIC50,[4],6.88
same,GI50,[5],785 nM
same,pIC50,[6],5.39
"CCN1CCN(Cc2ccc(NC(=O)c3ccc(C)c(C#Cc4cnc5c(Nc6ccc(C)cn6)cccn45)c3)cc2C(F)(F)F)CC1 [Example 21, N-(4-((4-ethylpiperazin-1-yl)methyl)-3-(trifluoromethyl)phenyl)-4-methyl-3-((8-((5-methylpyridin-2-yl)amino)imidazo[1,2-a]pyridin-3-yl)ethynyl)benzamide]",pIC50,[1],5.78
same,pIC50,[8],> 7.00
same,pIC50,[2],5.73
same,pIC50,[3],5.83
same,pIC50,[4],7.82
same,GI50,[5],149 nM
same,pIC50,[6],5.73
"Cc1ccc(Nc2cccn3c(C#Cc4cc(C(=O)Nc5ccc(CN6CCN(C)CC6)c(C(F)(F)F)c5)ccc4C)cnc23)cc1 [Example 24, 4-methyl-N-(4-((4-methylpiperazin-1-yl)methyl)-3-(trifluoromethyl)phenyl)-3-((8-(p-toylamino)imidazo[1,2-a]pyridin-3-yl)ethynyl)benzamide]",pIC50,[1],5.44
same,pIC50,[8],> 6.00
same,pIC50,[2],4.95
same,pIC50,[3],5.58
same,pIC50,[4],7.35
same,GI50,[5],668 nM
same,pIC50,[6],5.45
"CCN1CCN(Cc2ccc(NC(=O)c3ccc(C)c(C#Cc4cnc5c(Nc6ccc(C)cc6)cccn45)c3)cc2C(F)(F)F)CC1 [Example 25, N-(4-((4-ethylpiperazin-1-yl)methyl)-3-(trifluoromethyl)phenyl)-4-methyl-3-((8-(p-toylamino)imidazo[1,2-a]pyridin-3-yl)ethynyl)benzamide]",pIC50,[1],5.52
same,pIC50,[8],> 6.00
same,pIC50,[2],4.76
same,pIC50,[3],5.68
same,pIC50,[4],7.28
same,GI50,[5],619 nM
same,pIC50,[6],5.43
"COCCn1cc(Nc2cccn3c(C#Cc4cc(C(=O)Nc5ccc(CN6CCN(C)[C@@H](C)C6)c(C(F)(F)F)c5)ccc4C)cnc23)cn1 [Example 44, (S)—N-(4-((3,4-dimethylpiperazin-1-yl)methyl)-3-(trifluoromethyl)phenyl)-3-((8-((1-(2-methoxyethyl)-1H-pyrazol-4-yl)amino)imidazo[1,2-a]pyridin-3-yl)ethynyl)-4-methylbenzamide]",pIC50,[7],7.41
same,pIC50,[1],6.62
same,pIC50,[8],8.00
same,pIC50,[2],6.78
same,pIC50,[4],7.92
same,GI50,[5],42.2 nM
same,pIC50,[6],6.74
"Cc1ccc(C(=O)Nc2ccc(CN3CC[C@@H](N(C)C)C3)c(C(F)(F)F)c2)cc1C#Cc1cnc2c(Nc3cnn(C)c3)cccn12 [Example 50, (R)—N-(4-((3-(dimethylamino)pyrrolidin-1-yl)methyl)-3-(trifluoromethyl)phenyl)-4-methyl-3-((8-((1-methyl-1H-pyrazol-4-yl)amino)imidazo[1,2-a]pyridin-3-yl)ethynyl)benzamide]",pIC50,[7],7.39
same,pIC50,[1],6.49
same,pIC50,[8],< 8.00
same,pIC50,[2],7.24
same,pIC50,[4],> 9.00
same,GI50,[5],28.2 nM
same,pIC50,[6],6.65
"Cc1ccc(C(=O)Nc2ccc(CN3CC[C@H](N(C)C)C3)c(C(F)(F)F)c2)cc1C#Cc1cnc2c(Nc3cnn(C)c3)cccn12 [Example 51, (S)—N-(4-((3-(dimethylamino)pyrrolidin-1-yl)methyl)-3-(trifluoromethyl)phenyl)-4-methyl-3-((8-((1-methyl-1H-pyrazol-4-yl)amino)imidazo[1,2-a]pyridin-3-yl)ethynyl)benzamide]",pIC50,[7],7.51
same,pIC50,[1],6.50
same,pIC50,[8],< 8.00
same,pIC50,[2],7.06
same,pIC50,[4],> 9.00
same,GI50,[5],28.8 nM
same,pIC50,[6],6.60
"Cc1ccc(C(=O)Nc2ccc(Cl)c(C(F)(F)F)c2)cc1C#Cc1cnc2c(Nc3cnn(C4CCNCC4)c3)cccn12 [Example 63, N-(4-chloro-3-(trifluoromethyl)phenyl)-4-methyl-3-((8-((1-(piperidin-4-yl)-1H-pyrazol-4-yl)amino)imidazo[1,2-a]pyridin-3-yl)ethynyl)benzamide]",pIC50,[7],7.15
same,pIC50,[1],5.85
same,pIC50,[8],< 8.00
same,pIC50,[4],> 9.00
same,GI50,[5],374 nM
same,pIC50,[6],5.87
"Cc1ccc(C(=O)Nc2ccc(CN3CCN(C)CC3)c(C(F)(F)F)c2)cc1C#Cc1cnc2c(Nc3cccc(C(C)(C)O)n3)cccn12 [Example 64, 3-((8-(6-(2-hydroxypropan-2-yl)pyridin-2-yl)aminoimidazo[1,2-a]pyridin-3-yl)ethynyl)-4-methyl-N-(4-((4-methylpiperazin-1-yl)methyl)-3-(trifluoromethyl)phenyl)benzamide]",pIC50,[7],6.89
same,pIC50,[1],6.01
same,pIC50,[8],< 8.00
same,pIC50,[4],8.52
same,GI50,[5],75 nM
same,pIC50,[6],6.13
"Cc1ccc(NC(=O)Nc2cccc(C(F)(F)F)c2)cc1C#Cc1cnc2c(Nc3cnn(C(C)C)c3)cccn12 [Example 83, 1-(3-((8-((1-isopropyl-1H-pyrazol-4-yl)amino)imidazo[1,2-a]pyridin-3-yl)ethynyl)-4-methylphenyl)-3-(3-(trifluoromethyl)phenyl)urea]",pIC50,[1],5.24
same,pIC50,[8],6.00
same,pIC50,[2],5.66
same,pIC50,[3],5.84
same,pIC50,[4],7.70
same,GI50,[5],627 nM
same,pIC50,[6],5.29
